Measurements as given in patent US5935983A, “Use of phenylcyclohexylcarboxamides” (Bayer Aktiengesellschaft, priority 1995, dated 1999).
pIC50: −log10 of the molar value.

Test system: smooth muscle cells obtained from the aortas of pigs
Test: inhibition of the proliferation of smooth muscle cells (3H-thymidine incorporation)
Format: cell-based, pig
Settings: Sus scrofa; porcine aortic smooth muscle cells; half-maximal inhibition of the thymidine incorporation produced by 10% FCS; 3H-thymidine added after 16-20 h, further 4 h
Experimental: Investigation of the inhibition of the proliferation of smooth muscle cells by the compounds according to the invention
To determine the antiproliferative action of the compounds, smooth muscle cells are used which are obtained from the aortas of pigs by the media explant technique [R. Ross, J. Cell. Biol. 50, 172, 1971]. The cells are inoculated into suitable culture dishes, as a rule 96-hole plates, and cultured at 37° C. in 5% CO2 for 2-3 days in medium 199 containing 7.5% FCS and 7.5% NCS, 2 mM L-glutamine and 15 mM HEPES, pH 7.4. The cells are then synchronized by serum withdrawal for 2-3 days and then stimulated to growth using serum or other factors. Test compounds are added simultaneously. After 16-20 hours, ^3 H-thymidine is added and after a further 4 hours the incorporation of this substance into the TCA-precipitable DNA of the cells is determined. To determine the IC50 values, the active compound concentration is calculated which, on sequential dilution of the active compound, causes half-maximal inhibition of the thymidine incorporation produced by 10% FCS.

With NC(=O)C(NC(=O)C1CCCCC1c1ccc(Cn2c(C3CC3)nc3ccccc32)cc1)c1ccccc1 (stereo not shown) [Example 16] the pIC50 was 9.55.
